Data reported in patent publication US20250114356A1, “INDAZOLE BASED COMPOUNDS AND ASSOCIATED METHODS OF USE” (Arvinas Operations, Inc., priority 2020, published 2025).

Key:
G2019S LRRK2 = molecular target: T1, G2019S LRRK2 (Homo sapiens, UniProt Q5S007, G2019S); assay: LRRK2 degradation assay, G2019S LRRK2-HiBit expressed from plasmid in HEK293 cells; format: cell-based; conditions: HEK293 cells transfected with HiBit-tagged G2019S LRRK2, 24 hours compound incubation
T1 construct: expressed in transfected cells; host or cells: HEK293 (ATCC CRL-1573), transient transfection, ubiquitin promoter
T1 sequence (Q5S007 whole entry G2019S): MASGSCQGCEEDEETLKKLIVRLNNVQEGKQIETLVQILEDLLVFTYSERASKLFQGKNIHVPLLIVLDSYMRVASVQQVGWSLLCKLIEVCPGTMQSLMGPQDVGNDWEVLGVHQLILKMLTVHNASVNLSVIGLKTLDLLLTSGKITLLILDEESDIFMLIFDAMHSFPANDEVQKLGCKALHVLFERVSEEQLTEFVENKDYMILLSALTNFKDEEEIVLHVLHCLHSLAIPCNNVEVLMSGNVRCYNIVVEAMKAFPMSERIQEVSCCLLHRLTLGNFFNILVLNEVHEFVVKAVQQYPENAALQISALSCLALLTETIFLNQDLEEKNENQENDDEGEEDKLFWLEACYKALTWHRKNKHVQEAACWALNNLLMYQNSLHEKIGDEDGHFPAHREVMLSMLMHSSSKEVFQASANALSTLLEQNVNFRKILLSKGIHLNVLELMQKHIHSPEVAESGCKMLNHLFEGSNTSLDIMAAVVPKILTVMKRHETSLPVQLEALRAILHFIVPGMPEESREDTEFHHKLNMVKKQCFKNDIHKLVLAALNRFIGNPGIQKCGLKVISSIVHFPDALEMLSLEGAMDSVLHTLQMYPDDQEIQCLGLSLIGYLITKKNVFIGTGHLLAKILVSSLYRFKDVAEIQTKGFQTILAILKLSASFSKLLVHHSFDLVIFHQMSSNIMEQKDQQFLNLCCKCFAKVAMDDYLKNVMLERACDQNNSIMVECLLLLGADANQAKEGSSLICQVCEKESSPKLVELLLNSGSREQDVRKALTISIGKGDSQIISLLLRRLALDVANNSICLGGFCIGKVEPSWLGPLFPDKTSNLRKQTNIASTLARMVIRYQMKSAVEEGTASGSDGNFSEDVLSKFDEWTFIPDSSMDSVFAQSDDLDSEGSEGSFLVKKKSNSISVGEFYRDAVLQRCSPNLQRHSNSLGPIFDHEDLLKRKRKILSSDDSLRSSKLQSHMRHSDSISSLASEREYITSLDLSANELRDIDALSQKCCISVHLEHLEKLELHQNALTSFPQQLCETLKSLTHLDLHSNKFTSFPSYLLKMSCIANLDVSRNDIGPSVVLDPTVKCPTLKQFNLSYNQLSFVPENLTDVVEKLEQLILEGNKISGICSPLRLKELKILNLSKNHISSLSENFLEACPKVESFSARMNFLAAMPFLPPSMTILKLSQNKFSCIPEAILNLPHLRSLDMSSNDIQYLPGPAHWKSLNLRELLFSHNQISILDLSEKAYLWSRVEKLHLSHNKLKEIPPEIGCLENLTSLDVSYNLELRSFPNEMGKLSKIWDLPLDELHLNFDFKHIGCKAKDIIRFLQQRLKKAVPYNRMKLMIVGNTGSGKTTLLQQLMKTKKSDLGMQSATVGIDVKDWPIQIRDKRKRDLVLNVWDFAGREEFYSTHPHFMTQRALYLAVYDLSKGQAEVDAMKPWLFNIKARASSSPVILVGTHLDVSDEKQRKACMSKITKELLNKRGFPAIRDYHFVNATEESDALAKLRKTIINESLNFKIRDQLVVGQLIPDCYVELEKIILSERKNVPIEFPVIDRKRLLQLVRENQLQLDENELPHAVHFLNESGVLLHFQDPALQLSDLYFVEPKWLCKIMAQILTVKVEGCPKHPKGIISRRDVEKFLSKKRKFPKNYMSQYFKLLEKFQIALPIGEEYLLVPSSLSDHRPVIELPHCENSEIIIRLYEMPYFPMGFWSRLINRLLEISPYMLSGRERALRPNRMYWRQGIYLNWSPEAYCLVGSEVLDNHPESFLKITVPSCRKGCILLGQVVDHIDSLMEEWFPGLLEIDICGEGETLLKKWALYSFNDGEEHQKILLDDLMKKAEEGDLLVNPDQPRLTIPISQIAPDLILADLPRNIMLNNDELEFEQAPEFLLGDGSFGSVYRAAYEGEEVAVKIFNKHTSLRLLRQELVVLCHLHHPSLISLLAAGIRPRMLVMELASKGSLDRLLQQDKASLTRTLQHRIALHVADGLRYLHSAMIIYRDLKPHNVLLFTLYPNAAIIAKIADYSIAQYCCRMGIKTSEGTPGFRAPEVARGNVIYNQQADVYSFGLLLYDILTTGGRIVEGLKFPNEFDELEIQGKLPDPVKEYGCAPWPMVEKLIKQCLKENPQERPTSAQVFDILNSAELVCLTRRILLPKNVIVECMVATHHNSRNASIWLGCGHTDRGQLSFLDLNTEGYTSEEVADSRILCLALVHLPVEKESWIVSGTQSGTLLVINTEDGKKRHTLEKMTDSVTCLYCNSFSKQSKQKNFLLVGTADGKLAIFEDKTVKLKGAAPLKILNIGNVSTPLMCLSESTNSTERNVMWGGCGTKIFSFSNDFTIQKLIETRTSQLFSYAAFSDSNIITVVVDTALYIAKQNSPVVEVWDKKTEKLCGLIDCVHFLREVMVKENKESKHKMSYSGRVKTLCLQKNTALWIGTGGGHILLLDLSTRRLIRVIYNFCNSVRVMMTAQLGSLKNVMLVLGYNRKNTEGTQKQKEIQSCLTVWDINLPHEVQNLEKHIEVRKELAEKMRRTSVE
Procedure: (§1) The assay measures the degradation of wildtype and G2019S LRRK2 tagged with a HiBit tag on the C-terminus of the protein that was expressed from a mammalian expression vector, driven by the ubiquitin promoter in HEK293 cells. Each compound dose-response was repeated on two separate days, on three separate plates each day.
(§2) Plasmid Preparation. Transfection mixes were assembled as follows and incubated for 30 minutes at room temperature. In a 15 mL tube, 5.25 mL Opti-MEM (no additions) was mixed with 17 μL Firefly Luciferase plasmid at 1 μg/μL and 158 μL WT plasmid DNA at 1 μg/μL (175 μg total DNA) were mixed by flicking. In a new 15 mL tube, 5.25 mL OptiMEM was mixed with 17 μL Firefly Luciferase plasmid at 1 μg/μL and 158 μL G2019S plasmid DNA at 1 μg/μL (175 μg total DNA) were mixed by flicking. X-tremeGene HP was mixed thoroughly using a vortex. Next, 175 μL was added to each tube and flicked to mix. Both tubes were left to incubate for 30 minutes at room temperature.
(§3) While the transfection mixes were incubating, HEK293 cells (acquired from ATCC; ATCC CRL-1573) were harvested with trypsin. Once cells are detached, the cells were resuspended in 12 mL OptiMEM+5% FBS and transferred to a 50 mL tube. The cells were mixed well and counted. Using OptiMEM+5% FBS, the cells were diluted in two 250 mL conical tubes at 0.71×10^6 cells/mL in 70 mL. One tube was labeled “WT” and the other “G2019S”. The WT and G2019S transfection mixes were added dropwise to the corresponding 250 mL tubes. The tubes were mixed first by pipetting then by swirling. The tubes were incubated at room temperature for at least 5 minutes.
(§4) Each tube was swirled before dispensing and after every three plates. Seventy microliters of cells were dispensed with WT or G2019S DNA to seven plates each. Three plates of each were tested with compound plate one (preparation described below) and three plates of each were tested with compound plate two (preparation described below). The first plate from each set served as a “prime” plate and was not used to test compounds. Each plate was incubated in the hood for 10 minutes before placing in the 37° C. incubator for 24 hours.
(§5) Preparation of Compound and Assay Plates. Two compound plates were made using 96 well polypropylene plates. Compounds were made up at 10 mM and were diluted to 1 mM in 30 μL. Each dose response curve included a well of DMSO, as a negative control and for normalization, and a well of 0.5 μM of Exemplary Compound 4 as a positive control. In addition to seven test compounds, each plate also included a dose response of Exemplary Compound 4. The compound plates were spun down along at 1200 rpm for 2 minutes.
(§6) The two compound plates were then mixed and 2 μL was diluted in intermediate plates having 248 μL of Opti-Mem in each well. Next, 10 μL diluted compounds from the intermediate plates were added to each test plate (three WT and three G2019S plates per compound plate for a total of 12 assay plates). The plates were incubated for 24 hours at 37° C.
(§7) All assay plates and all Nano-Glo Dual-Luciferase Reporter Assay System components (except for the DLR substrate) were equilibrated to room temperature. Next, the luciferase buffer was mixed with the lyophilized amber bottle until fully dissolved, and 75 μL of the luciferase mixture was added to each well of each assay plate. The assay plates were incubated for 10 minutes at room temperature with shaking for at least 5 minutes, and then read on a plate reader.
(§8) Developing Plates and Analyzing Data. One milliliter of DLR substrate and 1 mL LgBiT Protein were added to the Stop and Glo buffer, and 75 μL of the mixture was added to each well of each plate. Optically clear seals were added to each plate and each plate was incubated for 20 minutes with shaking for at least 10 minutes, and then read on a plate reader. […]

wildtype LRRK2 = molecular target: T2, wildtype LRRK2 (Homo sapiens, UniProt Q5S007); assay: LRRK2 degradation assay, wildtype LRRK2-HiBit expressed from plasmid in HEK293 cells; format: cell-based; conditions: HEK293 cells transfected with HiBit-tagged wildtype LRRK2, 24 hours compound incubation; for Dmax: read-out: **WT Dmax (%); for DC50: read-out: *WT DC50
T2 construct: expressed in transfected cells; host or cells: HEK293 (ATCC CRL-1573), transient transfection, ubiquitin promoter
T2 sequence (Q5S007 whole entry): as the sequence (Q5S007 whole entry G2019S) above, with S2019G counted along it
Procedure: as §1, §2, §3, §4, §5, §6, §7, §8

Structure (SMILES): CC(C)Oc1ccc2[nH]nc(-c3cc(N4CCN(CCOCCOCCOc5ccc6c(c5)C(=O)N(C5CCC(=O)NC5=O)C6=O)[C@@H](C)C4)ncn3)c2c1 (stereo partly drawn) [compound 8, 2-(2,6-dioxopiperidin-3-yl)-5-[2-(2-{2-[(2S)-2-methyl-4-{6-[5-(propan-2-yloxy)-1H-indazol-3-yl]pyrimidin-4-yl}piperazin-1-yl]ethoxy}ethoxy)ethoxy]-2,3-dihydro-1H-isoindole-1,3-dione]
- DC50 (G2019S LRRK2): ≥ 0.1 µM
- Dmax (G2019S LRRK2): < 50%
- Dmax (wildtype LRRK2): < 50%
- DC50 (wildtype LRRK2): ≥ 0.1 µM

Structure (SMILES): C[C@H]1CN(c2cc(-c3n[nH]c4ccc(OC5(C)CC5)cc34)ncn2)CCN1CCOCCOCCOCCOc1ccc(C(=O)NC2CCC(=O)NC2=O)c(F)c1 (stereo partly drawn) [compound 13, N-(2,6-dioxopiperidin-3-yl)-2-fluoro-4-{2-[2-(2-{2-[(2S)-2-methyl-4-{6-[5-(1-methylcyclopropoxy)-1H-indazol-3-yl]pyrimidin-4-yl}piperazin-1-yl]ethoxy}ethoxy)ethoxy]ethoxy}benzamide]
- DC50 (G2019S LRRK2): 0.01 to 0.05 µM
- Dmax (G2019S LRRK2): < 50%
- Dmax (wildtype LRRK2): < 50%
- DC50 (wildtype LRRK2): 0.01 to 0.05 µM

Structure (SMILES): CC(C)Oc1ccc2[nH]nc(-c3cc(N4CCN(CCN5CCN(CC6CCN(c7ccc8c(c7)C(=O)N(C7CCC(=O)NC7=O)C8=O)CC6)CC5)[C@@H](C)C4)ncn3)c2c1 (stereo partly drawn) [compound 26, 2-(2,6-dioxopiperidin-3-yl)-5-{4-[(4-{2-[(2S)-2-methyl-4-{6-[5-(propan-2-yloxy)-1H-indazol-3-yl]pyrimidin-4-yl}piperazin-1-yl]ethyl}piperazin-1-yl)methyl]piperidin-1-yl}-2,3-dihydro-1H-isoindole-1,3-dione]
- DC50 (G2019S LRRK2): 0.01 to 0.05 µM
- Dmax (G2019S LRRK2): ≥ 70%
- Dmax (wildtype LRRK2): ≥ 70%
- DC50 (wildtype LRRK2): 0.01 to 0.05 µM

Structure (SMILES): C[C@H]1CN(c2cc(-c3n[nH]c4ccc(OC5(C)CC5)cc34)ccn2)CCN1CCOCCOCCOCCOc1ccc2c(c1)C(=O)N(C1CCC(=O)NC1=O)C2=O (stereo partly drawn) [compound 12, 2-(2,6-dioxopiperidin-3-yl)-5-{2-[2-(2-{2-[(2S)-2-methyl-4-{4-[5-(1-methylcyclopropoxy)-1H-indazol-3-yl]pyridin-2-yl}piperazin-1-yl]ethoxy}ethoxy)ethoxy]ethoxy}-2,3-dihydro-1H-isoindole-1,3-dione]
- DC50 (G2019S LRRK2): < 0.01 µM
- Dmax (G2019S LRRK2): ≥ 70%
- Dmax (wildtype LRRK2): ≥ 70%
- DC50 (wildtype LRRK2): < 0.01 µM

Structure (SMILES): CC(C)Oc1ccc2[nH]nc(-c3cc(N4CCN(CCCN(C)CCCN5CCN(c6ccc7c(c6)C(=O)N(C6CCC(=O)NC6=O)C7=O)CC5)[C@@H](C)C4)ncn3)c2c1 (stereo partly drawn) [compound 38, 2-(2,6-dioxopiperidin-3-yl)-5-(4-{3-[methyl({3-[(2S)-2-methyl-4-{6-[5-(propan-2-yloxy)-1H-indazol-3-yl]pyrimidin-4-yl}piperazin-1-yl]propyl})amino]propyl}piperazin-1-yl)-2,3-dihydro-1H-isoindole-1,3-dione]
- DC50 (G2019S LRRK2): ≥ 0.1 µM
- Dmax (G2019S LRRK2): ≥ 70%
- Dmax (wildtype LRRK2): ≥ 70%
- DC50 (wildtype LRRK2): 0.05 to 0.1 µM

Structure (SMILES): CC(C)Oc1ccc2[nH]nc(-c3cc(N4CCN(CC[C@@H]5CCN(CC6CCN(c7ccc8c(c7)C(=O)N(C7CCC(=O)NC7=O)C8=O)CC6)C5)CC4)ncn3)c2c1 (stereo partly drawn) [compound 43, 2-(2,6-dioxopiperidin-3-yl)-5-(4-(((S)-3-(2-(4-(6-(5-isopropoxy-1H-indazol-3-yl)pyrimidin-4-yl)piperazin-1-yl)ethyl)pyrrolidin-1-yl)methyl)piperidin-1-yl)isoindoline-1,3-dione]
- DC50 (G2019S LRRK2): 0.01 to 0.05 µM
- Dmax (G2019S LRRK2): 50 to 70%
- Dmax (wildtype LRRK2): ≥ 70%
- DC50 (wildtype LRRK2): 0.01 to 0.05 µM

Structure (SMILES): CC(C)Oc1ccc2[nH]nc(-c3cc(N4CCO[C@H](CN5CCN(CC6CCN(c7ccc8c(c7)C(=O)N(C7CCC(=O)NC7=O)C8=O)CC6)CC5)C4)ncn3)c2c1 (stereo partly drawn) [compound 48, 2-(2,6-dioxopiperidin-3-yl)-5-(4-((4-(((R)-4-(6-(5-isopropoxy-1H-indazol-3-yl)pyrimidin-4-yl)morpholin-2-yl)methyl)piperazin-1-yl)methyl)piperidin-1-yl)isoindoline-1,3-dione]
- DC50 (G2019S LRRK2): < 0.01 µM
- Dmax (G2019S LRRK2): 50 to 70%
- Dmax (wildtype LRRK2): 50 to 70%
- DC50 (wildtype LRRK2): < 0.01 µM

Structure (SMILES): CC(C)Oc1ccc2[nH]nc(-c3cc(N4CCN(CCN5CC(C6CCN(c7ccc8c(c7)C(=O)N(C7CCC(=O)NC7=O)C8=O)CC6)C5)CC4)ncn3)c2c1 (stereo not shown) [compound 44, 2-(2,6-dioxopiperidin-3-yl)-5-(4-(1-(2-(4-(6-(5-isopropoxy-1H-indazol-3-yl)pyrimidin-4-yl)piperazin-1-yl)ethyl)azetidin-3-yl)piperidin-1-yl)isoindoline-1,3-dione]
- DC50 (G2019S LRRK2): 0.01 to 0.05 µM
- Dmax (G2019S LRRK2): 50 to 70%
- Dmax (wildtype LRRK2): 50 to 70%
- DC50 (wildtype LRRK2): 0.01 to 0.05 µM

Structure (SMILES): CC(C)Oc1ccc2[nH]nc(-c3cc(N4CCN(CC5CCN(CC6CCN(c7ccc8c(c7)C(=O)N(C7CCC(=O)NC7=O)C8=O)CC6)CC5)[C@@H](C)C4)ncn3)c2c1 (stereo partly drawn) [compound 25, 2-(2,6-dioxopiperidin-3-yl)-5-{4-[(4-{[(2S)-2-methyl-4-{6-[5-(propan-2-yloxy)-1H-indazol-3-yl]pyrimidin-4-yl}piperazin-1-yl]methyl}piperidin-1-yl)methyl]piperidin-1-yl}-2,3-dihydro-1H-isoindole-1,3-dione]
- DC50 (G2019S LRRK2): < 0.01 µM
- Dmax (G2019S LRRK2): ≥ 70%
- Dmax (wildtype LRRK2): ≥ 70%
- DC50 (wildtype LRRK2): < 0.01 µM

Structure (SMILES): CC(C)Oc1ccc2[nH]nc(-c3ccnc(N4CCN(CCOCCOCCOCCOc5ccc6c(c5)C(=O)N(C5CCC(=O)NC5=O)C6=O)[C@@H](C)C4)c3)c2c1 (stereo partly drawn) [compound 11, 2-(2,6-dioxopiperidin-3-yl)-5-{2-[2-(2-{2-[(2S)-2-methyl-4-{4-[5-(propan-2-yloxy)-1H-indazol-3-yl]pyridin-2-yl}piperazin-1-yl]ethoxy}ethoxy)ethoxy]ethoxy}-2,3-dihydro-1H-isoindole-1,3-dione]
- DC50 (G2019S LRRK2): 0.01 to 0.05 µM
- Dmax (G2019S LRRK2): 50 to 70%
- Dmax (wildtype LRRK2): 50 to 70%
- DC50 (wildtype LRRK2): ≥ 0.1 µM

Structure (SMILES): C[C@H]1CN(c2cc(-c3n[nH]c4ccc(OC(C)(C)C)cc34)ncn2)CCN1CCOCCOCCOCCOc1ccc2c(c1)C(=O)N(C1CCC(=O)NC1=O)C2=O (stereo partly drawn) [compound 16, 5-{2-[2-(2-{2-[(2S)-4-{6-[5-(tert-butoxy)-1H-indazol-3-yl]pyrimidin-4-yl}-2-methylpiperazin-1-yl]ethoxy}ethoxy)ethoxy]ethoxy}-2-(2,6-dioxopiperidin-3-yl)-2,3-dihydro-1H-isoindole-1,3-dione]
- DC50 (G2019S LRRK2): ≥ 0.1 µM
- Dmax (G2019S LRRK2): < 50%
- Dmax (wildtype LRRK2): < 50%
- DC50 (wildtype LRRK2): ≥ 0.1 µM

Structure (SMILES): CC(C)Oc1ccc2[nH]nc(-c3cc(N4CCN(CCOCCOCCOCCOc5ccc6c(c5)C(=O)N(C5CCC(=O)NC5=O)C6=O)[C@@H](C)C4)ncn3)c2c1 (stereo partly drawn) [compound 9, 2-(2,6-dioxopiperidin-3-yl)-5-{2-[2-(2-{2-[(2S)-2-methyl-4-{6-[5-(propan-2-yloxy)-1H-indazol-3-yl]pyrimidin-4-yl}piperazin-1-yl]ethoxy}ethoxy)ethoxy]ethoxy}-2,3-dihydro-1H-isoindole-1,3-dione]
- DC50 (G2019S LRRK2): ≥ 0.1 µM
- Dmax (G2019S LRRK2): < 50%
- Dmax (wildtype LRRK2): < 50%
- DC50 (wildtype LRRK2): ≥ 0.1 µM

Structure (SMILES): CC(C)Oc1ccc2[nH]nc(-c3cc(N4CCN(CCN5CCC(CC6CCN(c7ccc8c(c7)C(=O)N(C7CCC(=O)NC7=O)C8=O)CC6)CC5)CC4)ncn3)c2c1 (stereo not shown) [compound 51, 2-(2,6-dioxopiperidin-3-yl)-5-(4-((1-(2-(4-(6-(5-isopropoxy-1H-indazol-3-yl)pyrimidin-4-yl)piperazin-1-yl)ethyl)piperidin-4-yl)methyl)piperidin-1-yl)isoindoline-1,3-dione]
- DC50 (G2019S LRRK2): 0.01 to 0.05 µM
- Dmax (G2019S LRRK2): 50 to 70%
- Dmax (wildtype LRRK2): 50 to 70%
- DC50 (wildtype LRRK2): 0.01 to 0.05 µM
